Assay results reported in the supplement of paper PMC10307832.

Tests used:
Test in all cases: relative viability (nuclei count vs DMSO), 5 days (fraction); higher = more cells survive
[1] = compound: CC1=C(C(=O)N2C=CSC2=N1)CCN3CCC(=C(C4=CC=CC=C4)C5=CC=C(C=C5)F)CC3 + CS(=O)(=O)N1CCN(Cc2cc3nc(-c4cccc5[nH]ncc45)nc(N4CCOCC4)c3s2)CC1 [Pictilisib] (partner 1 µM)
Outline: (§1)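 Each reported value is a median over duplicate plates. It expresses relative viability: treated-well nuclei count divided by vehicle-well nuclei count. Lung cancer cell lines in 1536-well plates were dosed by pin tool a day after seeding, alone with one drug or with a fixed anchor-drug dose plus five library-drug doses (not always all listed) in √10 steps, and nuclei were counted after 5 days.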

[2] = compound: CC1=C(C(=O)N2C=CSC2=N1)CCN3CCC(=C(C4=CC=CC=C4)C5=CC=C(C=C5)F)CC3 + CC(=O)c1c(C)c2cnc(Nc3ccc(N4CCNCC4)cn3)nc2n(C2CCCC2)c1=O [Palbociclib] (partner 0.5 µM)
Outline: as §1

[3] = compound: CC1=C(C(=O)N2C=CSC2=N1)CCN3CCC(=C(C4=CC=CC=C4)C5=CC=C(C=C5)F)CC3 + CCNC(=O)c1noc(-c2cc(C(C)C)c(O)cc2O)c1-c1ccc(CN2CCOCC2)cc1 [Luminespib] (partner 0.01 µM)
Outline: as §1

[4] = compound: CC1=C(C(=O)N2C=CSC2=N1)CCN3CCC(=C(C4=CC=CC=C4)C5=CC=C(C=C5)F)CC3 + COc1cccc2cc(-c3nc([C@H]4CC[C@H](C(=O)O)CC4)n4ncnc(N)c34)[nH]c12 [OSI-027] (partner 0.5 µM)
Outline: as §1

| Cell Line | relative viability ([1]; first compound 0.08 µM) | relative viability ([1]; first compound 0.253 µM) | relative viability ([1]; first compound 0.8 µM) | relative viability ([1]; first compound 2.53 µM) | relative viability ([1]; first compound 8 µM) | relative viability ([2]; first compound 0.08 µM) | relative viability ([2]; first compound 0.253 µM) | relative viability ([2]; first compound 0.8 µM) | relative viability ([2]; first compound 2.53 µM) | relative viability ([2]; first compound 8 µM) | relative viability ([3]; first compound 0.08 µM) | relative viability ([3]; first compound 0.253 µM) | relative viability ([3]; first compound 2.53 µM) | relative viability ([3]; first compound 8 µM) | relative viability ([4]; first compound 0.08 µM) | relative viability ([4]; first compound 0.253 µM) | relative viability ([4]; first compound 2.53 µM) | relative viability ([4]; first compound 8 µM) | relative viability ([3]; first compound 0.8 µM) | relative viability ([4]; first compound 0.8 µM) |
| --- | --- | --- | --- | --- | --- | --- | --- | --- | --- | --- | --- | --- | --- | --- | --- | --- | --- | --- | --- | --- |
| NCI-H1299 | 1 | 0.906 | 0.754 | 1.05 | 0.575 | – | – | – | – | – | – | – | – | – | – | – | – | – | – | – |
| HCC-44 | 0.532 | 0.643 | 0.587 | 0.573 | 0.581 | 0.956 | 0.997 | 1.02 | 1.01 | 0.86 | 1.37 | 1.51 | 1.3 | 0.736 | 0.69 | 0.548 | 0.494 | 0.491 | – | – |
| IA-LM | – | 0.354 | 0.211 | 0.345 | 0.234 | – | – | – | – | – | – | – | – | – | – | – | – | – | – | – |
| NCI-H1915 | 1.21 | 1.01 | 0.969 | 1.04 | 0.835 | 0.559 | 0.542 | 0.496 | 0.498 | 0.397 | 1.01 | 0.655 | 0.656 | 0.499 | 0.758 | 0.599 | 0.642 | 0.464 | 0.797 | 0.589 |
| NCI-H596 | 0.435 | 0.418 | 0.38 | 0.369 | 0.386 | – | – | – | – | – | 1.05 | 0.978 | 1.08 | 0.655 | 0.668 | 0.788 | 0.827 | 0.41 | 1.23 | 0.746 |
| EPLC-272H | – | 0.332 | 0.259 | 0.306 | 0.359 | 0.321 | 0.316 | 0.33 | 0.329 | 0.337 | 0.276 | 0.227 | 0.423 | 0.268 | 0.26 | 0.282 | 0.262 | 0.235 | 0.197 | 0.316 |
| NCI-H23 | 0.473 | 0.39 | 0.443 | 0.497 | 0.374 | 0.542 | 0.492 | 0.463 | 0.568 | 0.403 | 0.205 | 0.207 | 0.23 | 0.241 | 0.572 | 0.517 | 0.738 | 0.399 | 0.22 | 0.482 |
| 201T | 0.647 | 0.779 | 0.632 | 0.712 | 0.808 | 0.355 | 0.35 | 0.366 | 0.35 | 0.348 | 1.02 | 1.1 | 1.05 | 0.966 | 0.579 | 0.663 | 0.842 | 0.695 | 1.06 | 0.81 |
| NCI-H2085 | 0.449 | 0.462 | 0.45 | 0.442 | 0.409 | 0.498 | 0.506 | 0.474 | 0.533 | 0.469 | 0.361 | 0.362 | 0.392 | 0.323 | 0.818 | 0.704 | 0.799 | 0.464 | 0.458 | 0.87 |
| NCI-H2228 | 0.648 | 0.295 | 0.276 | 0.504 | 0.283 | 0.56 | 0.68 | 0.723 | 0.468 | 0.432 | 0.126 | 0.194 | 0.137 | 0.101 | 0.567 | 0.532 | 0.597 | 0.378 | 0.181 | 0.632 |
